In patent US20150352114A1, “MITOTIC KINESIN Eg5 INHIBITING ANTICANCER AGENTS” (THE CLEVELAND CLINIC FOUNDATION, priority 2014, published 2015):

System: pCRMP2 (T514) in interphase GSCs
Assay: CRMP2 phosphorylation immunoblot
Type: cell-based, human
Conditions: interphase GSCs treated with microtubule agents
Procedure: FIGS. 8(A-B) illustrate that Eg5 impacts microtubule growth through the CRMP-tubulin deposition pathway; (A) 08-387 GSCs enriched in interphase were exposed to vehicle (DMSO) or ispinesib (200 nM) and harvested for whole cell lysates every two hours over a 6 hour time course. Resulting lysates were probed for CRMP2 and pCRMP2 (T514); (B) Human brain microvascular endothelial cells (HuBrMVECs) were treated with vehicle (DMSO) or ispinesib (200 nM) and harvested for whole cell lysates every three hours over a 6 hour time course. Resulting lysates were probed for CRMP2 and pCRMP2 (T514); For all immunoblots, βactin served as a loading control. Molecular weight (MW) of resulting bands is given in kilodaltons (kD).
Protein extracts were made using a 50 mM Tris pH 8.0, […] NaCl, 0.5% NP-40 lysis solution. Resulting lysates were ran on 10% SDS-PAGE gels and transferred to Immobilon-FL PVDF (Millipore Corp., Billerica, Mass.). The membranes were blocked with 5% (wt/vol) bovine serum albumin in PBS-Tween-20 (0.2% vol/vol) and probed with primary antibodies against Eg5 (mouse, 1:4000, BD Biosciences, San Jose, Calif.), Olig2 (rabbit, 1:1000, abcam, San Francisco, Calif.), GFAP (DAKO; 1:10,000, Carpinteria, Calif.), CRMP2 (mouse, 1:1000, abgent, San Diego, Calif.), pCRMP2(T514) (rabbit, 1:1000, Cell Signaling, Beverly, Mass.), or β-actin (mouse, 1:8000, Sigma-Aldrich, St. Louis, Mo.) as a loading control. Secondary antibodies (LI-COR) were incubated in TBST+0.02% SDS and visualized with the LI-COR Odyssey near infrared imaging system (Lincoln, NB).

Row | SMILES | CRMP2 phosphorylation at T514
1 | COC(=O)Nc1nc2ccc(C(=O)c3cccs3)cc2[nH]1 [nocodazole] | induce CRMP2 phosphorylation at T514
2 | CC(=O)O[C@H]1C(=O)[C@@]2(C)[C@H]([C@H](OC(=O)c3ccccc3)[C@]3(O)C[C@H](OC(=O)[C@H](O)[C@@H](NC(=O)c4ccccc4)c4ccccc4)C(C)=C1C3(C)C)[C@]1(OC(C)=O)CO[C@@H]1C[C@@H]2O [paclitaxel] | induce CRMP2 phosphorylation at T514
